# Values quoted from earlier work, collected in US6277391A, “Composition and method of treating diseases and disorders of the prostate” (Samyang Corporation, priority 1998, dated 2001).
# Conditions: 300 mg PO b.i.d., oral or intravenous, at the end of regimen; 60480 min
structure (smiles),measurement,value
CC1COc2c(N3CCN(C)CC3)c(F)cc3c(=O)c(C(=O)O)cn1c23 (stereo not shown) [ofloxacin],ofloxacin concentrations in the prostate,1 to 4 µg/g
